Experimental data: patent US6372194B1, “MRI contrast media recognizing minor environmental changes” (Nihon Schering K.K., priority 1997, dated 2002)

Assay: Proton relaxing times (T1, T2) and proton relaxivity, Minispec 20 MHz, 40° C.
Type: physicochemical
Settings: for T1 relaxing time / T2 relaxing time: 20 MHz, 40° C.
Protocol: The proton relativity of poly[Gd(DTPA-PDA)2]35 and poly[Gd(DTPA-PDA)5]14 obtained in Example 1 was compared with that of conventional MRI contrast medium. As the conventional MRI contrast medium, used was Gd-DTPA (Magnevist). The proton relaxivity was determined by using Minispec (NMS 120/125/10VTS, manufactured by Japan Bruker) at frequency at 20 MHz and temperature at 40° C. T1 was determined using an IR (inversion recovery) method under the conditions of initial τ of 2 ms, τ magnification of 1.7 and determination points of 20. T2 was determined using a CPMG (Carr-Purcell-Meiboon-Gill) method under the conditions of τ of 1 ms and determination points of 50.
Respective proton relaxing times (T1 and T2) are shown in Table 1, and the proton relaxivity (R1 and R2) calculated from said proton relaxing time are shown in Table 2.

## O=C([O-])CN(CCN(CC(=O)[O-])CC(=O)O)CCN(CC(=O)[O-])CC(=O)O.[Gd+3] [Gd-DTPA]
Gd concentration 0.1 mM
  T1 relaxing time: 1503 ms
  T2 relaxing time: 1339 ms
Gd concentration 1 mM
  T1 relaxing time: 247 ms
  T2 relaxing time: 220 ms
Gd concentration 5 mM
  T1 relaxing time: 53 ms
  T2 relaxing time: 47 ms
Gd concentration 10 mM
  T1 relaxing time: 26 ms
  T2 relaxing time: 24 ms
Calculated from proton relaxing time
  proton relaxivity R1: 3.81 1 mmol^−1 sec^−1
